# “And” between values parts separate entries of the source, which are not always exact repeats. Equal values may be shown once. “Also recorded” adds a separate entry of the source. Read-outs that look alike come from different tables or passages of the source.
# Legend:
# [1] = molecular target: recombinant mouse sEH (MsEH) (Mus musculus (Mouse), UniProt P34914); assay: Spectrophotometric sEH inhibition assay (NEP2C substrate), recombinant mouse sEH; assay type: biochemical
# Procedure: (§1) Recombinant mouse sEH (MsEH) and human sEH (HsEH) were produced in a baculovirus expression system as previously reported. […] The expressed proteins were purified from cell lysate by affinity chromatography. […] Protein concentration was quantified using the Pierce BCA assay using bovine serum albumin as the calibrating standard.
# (§2) The mixture was incubated at 30° C. for 5 minutes. […] Assays were performed in quadruplicate.
# Human sEH (HsEH) = Human sEH (HsEH) (Homo sapiens (Human), UniProt P34913); assay: Spectrophotometric sEH inhibition assay (NEP2C substrate), recombinant human sEH; assay type: biochemical
# Procedure: as §1, §2
# [2] = system: SHR (spontaneously hypertensive rat); assay: Systolic blood pressure by tail cuff in SHR; assay type: in vivo; details: for decrease in systolic blood pressure 6 hr after the dose / time by which blood pressure returned to baseline after the dose: single dose 3 mg/kg DCU or equimolar; for effect on blood pressure in the SHR: dose equimolar to 3 mg/kg DCU
# From the text: Animals. Male SHR and WKY rats 3-13 wks of age were purchased from Charles River Laboratories (Wilmington, Mass.) and housed in a controlled environment with 12 hr light/dark cycles and fed standard laboratory chow for □ 3 days before euthanasia. All animal use was approved by the University of California San Francisco Committee on Animal Research and followed the National Institutes of Health guidelines for the care and use of laboratory animals. For isolation of kidney subcellular fractions, rats were anesthetized with methoxyflurane, the abdominal cavities were opened, and the kidneys were perfused with ice-cold saline. Perfused kidneys were rapidly removed, the cortex and medulla dissected out and immersed in liquid nitrogen. All tissue was stored at −80° C. until preparation of microsomes. In some cases WKY and SHR rats were housed in metabolic cages for up to three days and urine was collected over triphenylphosphine in 24 hr intervals. The urine volume was noted and aliquots were stored at −80° C. prior to extraction and quantitation of DHETs and EETs. […] Systolic blood pressure was measured at room temperature by a photoelectric tail cuff system (Model 179, IITC, Inc., Woodland Hills, Calif.) for up to four days following the dose of inhibitor. Blood pressures are reported as the average of three separate readings over a 30 min period. […] Similar inhibition studies were carried out with equimolar doses of N-cyclohexyl-N′-dodecylurea, N-cyclohexyl-N′-ethylurea and dodecylaamine.
# [3] = system: 14,15-EET hydrolysis in vivo (sEH), SHR; assay: Urinary DHET and EET excretion in SHR (GC-MS); set-up: species or system rat; details: 3 mg/kg i.p. daily, 24 hr urine after third dose, vehicle 2020
# CYP epoxygenase = assay: Renal microsomal arachidonic acid metabolism, CYP epoxygenase activity; assay type: biochemical, rat; details: concentrations up to 25 μM
# Procedure: Renal microsomal arachidonic acid metabolism. Microsomes, cytosol, and S9 fractions were prepared from the renal cortex or outer medulla samples from a single animal as described previously (Kroetz, D. L. et al. Mol Pharmacol 52, 362-372 (1997), Su, P. et al. Am J Physiol 275, […]-438 (1998)). Reaction conditions for the in vitro determination of arachidonic acid epoxygenase activity, metabolite extraction and HPLC analysis were described in detail elsewhere (Su, P. et al. Am J Physiol 275, […]-438 (1998)).
# Swiss Webster mice = assay: Leukotoxin/isoleukotoxin-induced death in mice; assay type: in vivo, mouse; details: pretreatment 400 mg/kg i.p. in corn oil, 30 minutes before leukotoxin/isoleukotoxin methyl esters 700 mg/kg i.v.
# Procedure: Male Swiss Webster mice (25-28 g) were purchased from Simonsen, Gilroy, Calif. The animals had free access to water and food. […] After 30 minutes of the pretreatment, the mice were treated intravenously through the tail vein with a 1:1 mixture of leukotoxin/isoleukotoxin methyl esters in ethanol (700 mg/kg, 1.0 ml/kg).
# WKY rats = assay: Systolic blood pressure by tail cuff in WKY rats; assay type: in vivo, rat; details: single 3 mg/kg dose
# From the text: Animals. Male SHR and WKY rats 3-13 wks of age were purchased from Charles River Laboratories (Wilmington, Mass.) and housed in a controlled environment with 12 hr light/dark cycles and fed standard laboratory chow for □ 3 days before euthanasia. All animal use was approved by the University of California San Francisco Committee on Animal Research and followed the National Institutes of Health guidelines for the care and use of laboratory animals. For isolation of kidney subcellular fractions, rats were anesthetized with methoxyflurane, the abdominal cavities were opened, and the kidneys were perfused with ice-cold saline. Perfused kidneys were rapidly removed, the cortex and medulla dissected out and immersed in liquid nitrogen. All tissue was stored at −80° C. until preparation of microsomes. In some cases WKY and SHR rats were housed in metabolic cages for up to three days and urine was collected over triphenylphosphine in 24 hr intervals. The urine volume was noted and aliquots were stored at −80° C. prior to extraction and quantitation of DHETs and EETs. […] Systolic blood pressure was measured at room temperature by a photoelectric tail cuff system (Model 179, IITC, Inc., Woodland Hills, Calif.) for up to four days following the dose of inhibitor. Blood pressures are reported as the average of three separate readings over a 30 min period. […]
# CYP ω-hydroxylase = assay: Renal microsomal arachidonic acid metabolism, ω-hydroxylase activity; assay type: biochemical, rat; details: concentrations up to 25 μM
# [4] = system: insect cell culture expressing rat mEH; assay: Toxicity of epoxide-containing xenobiotics in insect cell culture expressing rat mEH; assay type: cell-based
# From the text: The micosomal enzyme play a significant role in the metabolism of xenobiotics such as polyaromatic toxicants. Additionally, polymorphism studies have underlined a potential role of this enzyme in relation to several diseases, such as emphysema, spontaneous abortion and several forms of cancer. Inhibition of recombinant rat and human mEH can be obtained using primary ureas, amides, and amines. […].
# [5] = Table 2, MsEH […], read-out: Mouse sEH IC50
# [6] = Table 1, MsEH […], read-out: Mouse sEH IC50
# [7] = Table 1, HsEH 0.2 μM (text b16: […])
# [8] = unpublished data, C. Morisseau and B. Hammock, 2000, read-out: IC50 with mouse sEH
"IC50 [1, 5] [µM]","IC50 (Human sEH (HsEH); Table 2, HsEH […]) [µM]",Compound,further results
1200 ± 25,,"O=[N+]([O-])c1ccc(C2OC2CO)cc1 (stereo not drawn) [4-NO2—C6H4 / H / CH—OH / R,R]",
42 ± 3,35 ± 1,ON=C(c1ccccc1)C1OC1c1ccc(-c2ccccc2)cc1 (racemic) [4-C6H5—C6H4 / C6H5 / C═NOH / ±],
0.48 ± 0.05,1.36 ± 0.07,COC(c1ccccc1)C1OC1c1ccc(-c2ccccc2)cc1 (racemic) [4-C6H5—C6H4 / C6H5 / CH—OCH3 / ±],
12.6 ± 0.9,22 ± 2,OC(c1ccccc1)C1OC1c1ccccc1 (racemic) [C6H5 / C6H5 / CH—OH / ±],
2.3 ± 0.4,0.31 ± 0.02,[O-][S+](c1ccccc1)C1OC1c1ccccc1 (racemic) [C6H5 / C6H5 / S—O / ±],
1.3 ± 0.3,0.3 ± 0.1,O=C(c1ccccc1)C1OC1c1ccc(F)cc1 (racemic) [4-F-C6H4 / C6H5 / C═O / ±],
2.9 ± 0.3,0.3 ± 0.1,O=C(c1ccccc1)C1OC1c1ccccc1 (racemic) [C6H5 / C6H5 / C═O / ±],
5 ± 1,,O=[N+]([O-])c1ccc(C2OC2CO)cc1 (racemic) [4-NO2—C6H4 / H / CH—OH / ±],
0.09 ± 0.01,0.15 ± 0.02,Cc1ccc(C(O)C2OC2c2ccc(-c3ccccc3)cc2)cc1 (racemic) [4-C6H5—C6H4 / 4-CH3—C6H4 / CH—OH / ±],
1100 ± 23,,"OCC1OC1c1ccccc1 (stereo not drawn) [C6H5 / H / CH—OH / R,R]",
1.6 ± 0.6,,"O=[N+]([O-])c1ccc(C2OC2CO)cc1 (stereo not drawn) [4-NO2—C6H4 / H / CH—OH / S,S]",
6.5 ± 0.2,39 ± 1,CC(O)C1OC1c1ccc([N+](=O)[O-])cc1 (racemic) [4-NO2—C6H4 / CH3 / CH—OH / ±],
0.51 ± 0.04,0.72 ± 0.03,OC(c1ccccc1)C1OC1c1ccc(-c2ccccc2)cc1 (racemic) [4-C6H5—C6H4 / C6H5 / CH—OH / ±],

# Continued, compound first:
Compound,"IC50 [1, 5] [µM]","IC50 (Human sEH (HsEH); Table 2, HsEH […]) [µM]",further results
CC(C)(C)CC(C)(C)NC(=O)NC1CCCCC1 [Compound 347],,,"IC50 [1, 6]: 0.07 ± 0.01 µM; IC50 (Human sEH (HsEH); [7]): 3.1 ± 0.07 µM"
OC(c1ccccc1)C1OC1c1ccc(F)cc1 (racemic) [4-F-C6H4 / C6H5 / CH—OH / ±],72 ± 16,18 ± 2,
[O-][S+](c1ccccc1)C1OC1c1ccc(-c2ccccc2)cc1 (racemic) [4-C6H5—C6H4 / C6H5 / S═O / ±],73 ± 5,70 ± 3,
O=C(Nc1ccc(Cl)c(Cl)c1)Nc1ccc(Cl)c(Cl)c1 [Compound 299],,,"IC50 [1, 6]: 0.7 ± 0.1 µM"
"O=C(NC1CCCCC1)NC1CCCCC1 [DCU, N,N′-dicyclohexylurea]",,,"decrease in systolic blood pressure 6 hr after the dose ([2]; SHR): 22±4 mm Hg and 22 mm Hg; time by which blood pressure returned to baseline after the dose ([2]; SHR): ≤ 24 h; systolic blood pressure ([2]; SHR, three to five hr after the fourth daily 3 mg/kg dose, vehicle 128±5): 102±5 mm Hg; excretion of total epoxygenase-derived products (EETs and DHETs) [3]: 1237 pg/mg creatinine; effect on CYP epoxygenase activity (CYP epoxygenase): no effect; effect on animal death induced by leukotoxin/isoleukotoxin (Swiss Webster mice): either blocked the animal death induced by leukotoxin/isoleukotoxin or lengthened the lives of the mice; effect on blood pressure in the WKY (WKY rats): no effect; also recorded: unaffected; effect on ω-hydroxylase activity (CYP ω-hydroxylase): no effect"
Cc1ccc(C(=O)C2OC2c2ccc(-c3ccccc3)cc2)cc1 (racemic) [4-C6H5—C6H4 / 4-CH3—C6H4 / C═O / ±],0.1 ± 0.01,0.19 ± 0.03,
CCCCCCCCNC(=O)NCCC [Compound 429],,,"IC50 [1, 6]: 0.38 ± 0.04 µM; IC50 (Human sEH (HsEH); [7]): 1.7 ± 0.4 µM"
CCCCCCCCCCCCNC(=O)NC1CCCCC1 [Compound 297],,,"IC50 [1, 6]: 0.05 ± 0.01 µM"
CCCCCCCCCCCCNC(=O)NC1CCCCC1 [N-cyclohexyl-N′-dodecylurea],,,"IC50 [1, 8]: 0.05 ± 0.01 µM; decrease in systolic blood pressure 6 hr after the dose ([2]; SHR): 12±2 mm Hg and 12 mm Hg; time by which blood pressure returned to baseline after the dose ([2]; SHR): ≤ 24 h"
CCNC(=O)NC1CCCCC1 [N-cyclohexyl-N′-ethylurea],,,"IC50 [1, 8]: 51.7 ± 0.7 µM; effect on blood pressure in the SHR [2]: no effect"
CCCCCCCC/C=C/CCCCCCCC(N)=O [elaidamide],,,effect on toxicity of epoxide-containing xenobiotics [4]: enhances the toxicity effects of epoxide-containing xenobiotics
O=C(Nc1ccc(O)cc1)NC1CCCCC1 [Compound 128],,,"IC50 [1, 6]: 0.79 ± 0.08 µM; IC50 (Human sEH (HsEH); [7]): 11.1 ± 0.8 µM"
ON=C(c1ccccc1)C1OC1c1ccccc1 (racemic) [C6H5 / C6H5 / C═NOH / ±],3.5 ± 0.5,0.29 ± 0.01,
CC(=O)C1OC1c1ccc([N+](=O)[O-])cc1 (racemic) [4-NO2—C6H4 / CH3 / C═O / ±],163 ± 11,269 ± 5,
O=C(Nc1ccc(Cl)cc1)NC1CCCCC1 [Compound 20],,,"IC50 [1, 6]: 0.19 ± 0.02 µM; IC50 (Human sEH (HsEH); [7]): 0.4 ± 0.05 µM"
"CCCCCCCCCCCCN [dodecylamine, reference compound]",,,effect on blood pressure in the SHR [2]: no effect
"OCC1OC1c1ccccc1 (stereo not drawn) [C6H5 / H / CH—OH / S,S]",2400 ± 46,,
O=C(c1ccccc1)C1OC1c1ccc(-c2c(F)c(F)c(F)c(F)c2F)cc1 (racemic) [4-C6F5—C6H4 / C6H5 / C═O / ±],0.14 ± 0.01,0.2 ± 0.01,
CCCCCCCCCCCCNC(=O)CC1CCCCC1 [Compound 514],,,"IC50 [1, 6]: 0.27 ± 0.01 µM"
COC(c1ccccc1)C1OC1c1ccccc1 (racemic) [C6H5 / C6H5 / CH—OCH3 / ±],103 ± 5,34 ± 1,

# Reference: US8815951B2, “Inhibitors of epoxide hydrolases for the treatment of inflammation” (The Regents of the University of California, priority 1996, dated 2014)
